Results published in patent publication US11311522B1 (Cavion, Inc., priority 2018, dated 2022).

System: patients with essential tremor
Assay: T-CALM: TETRAS-PS spiral task (item 6)
Format: in vivo, human
Description: The Archimedes spiral item of the TETRAS-PS subscale (Item 6) incorporates a routine clinical assessment of functional tremor impact into the TETRAS scoring of tremor severity. […] The investigator then asks the subject to copy the spiral. Each hand is tested and scored separately. […] The tremor in the spiral is scored, not the movement of the limb.
Scores for TETRAS-PS subscale item 6 were summed for both hands and the mean change from baseline was calculated for Day 15 and Day 28 (FIG. 4 and Table 4). Statistical significance was calculated by Mann-Whitney non-parametric t-test (two tailed).

## CC(C)c1ccc(CC(=O)N[C@H](C)c2ccc(OCC(F)(F)F)cn2)cc1 [CX-8998]
Day 15 (8 mg BID)
  Change from baseline in TETRAS-PS spiral item, mean: −0.41
Day 28 (10 mg BID)
  Change from baseline in TETRAS-PS spiral item, mean: −0.658
